Reference: ChEMBL document CHEMBL3407356, “Design, synthesis, biological evaluation and molecular modeling of dihydropyrazole sulfonamide derivatives as potential COX-1/COX-2 inhibitors” (Bioorg Med Chem Lett, 2015)

Assays:
[1] = Cytotoxicity against human 293T cells after 24 hrs by MTT assay; format: cell-based; settings: HEK-293T cells
[2] = system: MCF7; test: Antiproliferative activity against human MCF7 cells after 24 hrs by MTT assay; format: functional, cell-based; settings: MCF7, 24 h
[3] = target: T1, Prostaglandin G/H synthase 2 (Homo sapiens, UniProt P35354); test: Inhibition of human recombinant COX2 by ELISA
T1 sequence (P35354 whole entry): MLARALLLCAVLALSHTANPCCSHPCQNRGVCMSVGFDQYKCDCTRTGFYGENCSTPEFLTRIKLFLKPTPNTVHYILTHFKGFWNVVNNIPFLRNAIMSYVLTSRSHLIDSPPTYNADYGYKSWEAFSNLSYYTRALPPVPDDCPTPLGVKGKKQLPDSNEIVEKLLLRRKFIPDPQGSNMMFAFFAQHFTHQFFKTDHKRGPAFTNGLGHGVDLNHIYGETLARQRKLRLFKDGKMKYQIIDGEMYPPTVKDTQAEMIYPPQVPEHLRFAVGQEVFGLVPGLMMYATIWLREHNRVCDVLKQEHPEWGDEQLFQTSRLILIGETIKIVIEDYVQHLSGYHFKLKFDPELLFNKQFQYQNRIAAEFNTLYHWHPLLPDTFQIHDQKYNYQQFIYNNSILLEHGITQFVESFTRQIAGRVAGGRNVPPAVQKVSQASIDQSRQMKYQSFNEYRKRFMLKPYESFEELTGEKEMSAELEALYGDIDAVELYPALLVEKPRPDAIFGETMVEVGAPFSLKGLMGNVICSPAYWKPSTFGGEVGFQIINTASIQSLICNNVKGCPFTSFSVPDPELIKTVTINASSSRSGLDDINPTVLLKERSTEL

[4] = system: HeLa; test: Antiproliferative activity against human HeLa cells after 24 hrs by MTT assay; format: functional, cell-based
[5] = target: Prostaglandin G/H synthase 1 (Homo sapiens, UniProt P23219); test: Inhibition of human recombinant COX1 by ELISA
Chain of Prostaglandin G/H synthase 1 (P23219 whole entry): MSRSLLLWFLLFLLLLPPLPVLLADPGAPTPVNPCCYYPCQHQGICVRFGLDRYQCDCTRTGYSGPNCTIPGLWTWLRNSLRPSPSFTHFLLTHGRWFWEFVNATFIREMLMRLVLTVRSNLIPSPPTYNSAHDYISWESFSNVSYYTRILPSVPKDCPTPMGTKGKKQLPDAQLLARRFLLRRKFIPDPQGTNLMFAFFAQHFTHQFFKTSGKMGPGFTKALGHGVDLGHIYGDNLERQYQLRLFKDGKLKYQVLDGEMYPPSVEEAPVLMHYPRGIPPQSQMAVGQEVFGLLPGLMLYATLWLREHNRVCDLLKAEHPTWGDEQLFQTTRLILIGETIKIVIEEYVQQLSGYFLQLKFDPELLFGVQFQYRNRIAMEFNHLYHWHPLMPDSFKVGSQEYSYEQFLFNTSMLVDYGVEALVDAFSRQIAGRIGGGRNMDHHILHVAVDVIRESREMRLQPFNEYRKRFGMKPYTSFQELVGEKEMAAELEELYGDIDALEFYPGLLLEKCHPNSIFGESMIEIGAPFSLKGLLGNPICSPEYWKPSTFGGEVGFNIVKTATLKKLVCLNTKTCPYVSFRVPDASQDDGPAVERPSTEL

[6] = Antiproliferative activity against mouse B16F10 cells after 24 hrs by MTT assay; format: functional, cell-based; settings: B16-F10, 24 h

Structure (SMILES)	CC50 at 24 h [1] [µM]	IC50 [2] [µM]	IC50 [3] [µM]	IC50 [4] [µM]	IC50 [5] [µM]	IC50 [6] [µM]
NS(=O)(=O)c1ccc(N2N=C3c4ccccc4CCC3C2c2ccc(Cl)cc2Cl)cc1 (configuration not stated)	64	13.7	32.3	3.57	> 100	53.2
COc1ccccc1C1C2COc3ccccc3C2=NN1c1ccc(S(N)(=O)=O)cc1 (configuration not stated)	83.2	42.9	0.33	13.9	68.5	10.2
NS(=O)(=O)c1ccc(N2N=C3c4ccccc4OCC3C2c2ccc(Cl)cc2Cl)cc1 (configuration not stated)	57.1	46.8	2.74	17.5	96.3	4.76
Cc1ccccc1C1C2COc3ccccc3C2=NN1c1ccc(S(N)(=O)=O)cc1 (configuration not stated)	64.8	41.2	0.46	36.7	59.4	22.2
NS(=O)(=O)c1ccc(N2N=C3c4ccccc4OCC3C2c2ccccc2Br)cc1 (configuration not stated)	81.6	27.8	1.26	2.94	90.2	12
NS(=O)(=O)c1ccc(N2N=C3c4ccccc4OCC3C2c2ccc(Cl)cc2)cc1 (configuration not stated)	61.4	28	8.24	7.73	> 100	3.76
COc1ccc(C2C3COc4ccccc4C3=NN2c2ccc(S(N)(=O)=O)cc2)cc1 (configuration not stated)	69.5	20.2	1.02	7.29	78.1	15.8
Cc1cccc(C2C3CCc4ccccc4C3=NN2c2ccc(S(N)(=O)=O)cc2)c1 (configuration not stated)	67.2	29.4	2.48	18	91.5	9.06
NS(=O)(=O)c1ccc(N2N=C3c4ccccc4CCC3C2c2c(F)cccc2Cl)cc1 (configuration not stated)	68.3	24.4	3.66	5.28	99.8	37.4
NS(=O)(=O)c1ccc(N2N=C3c4ccccc4OCC3C2c2ccc(Br)cc2)cc1 (configuration not stated)	63.2	46	6.88	8.4	> 100	7.3
NS(=O)(=O)c1ccc(N2N=C3c4ccccc4CCC3C2c2ccccc2)cc1 (configuration not stated)	66.9	5.34	8.34	25.5	> 100	5.01
COc1cc2ncnc(Nc3ccc(F)c(Cl)c3)c2cc1OCCCN1CCOCC1 [GEFITINIB]	52					
NS(=O)(=O)c1ccc(N2N=C3c4ccccc4OCC3C2c2ccccc2Cl)cc1 (configuration not stated)	75	23.9	2.28	13.2	86.8	12.1
Cc1ccccc1C1C2CCc3ccccc3C2=NN1c1ccc(S(N)(=O)=O)cc1 (configuration not stated)	70.8	8.29	3.28	30.1	99.9	2.93
NS(=O)(=O)c1ccc(N2N=C3c4ccccc4OCC3C2c2ccccc2F)cc1 (configuration not stated)	70.5	30.5	7.24	9.87	> 100	35.2
NS(=O)(=O)c1ccc(N2N=C3c4ccccc4CCC3C2c2cccc(O)c2)cc1 (configuration not stated)	69.2	11	1.76	4.82	86.2	33.3
NS(=O)(=O)c1ccc(N2N=C3c4ccccc4CCC3C2c2ccc(C(F)(F)F)cc2)cc1 (configuration not stated)	55.2	33.9	18.3	11.2	> 100	5.72
NS(=O)(=O)c1ccc(N2N=C3c4ccccc4OCC3C2c2c(F)cccc2Cl)cc1 (configuration not stated)	66.2	40.5	16.3	7.76	> 100	8.49
Cc1ccc(C2C3CCc4ccccc4C3=NN2c2ccc(S(N)(=O)=O)cc2)cc1 (configuration not stated)	63.6	4.24	2.16	9.86	88.4	17.1
Cc1ccc(-c2cc(C(F)(F)F)nn2-c2ccc(S(N)(=O)=O)cc2)cc1 [CELECOXIB]	72.4	5.94		7.35		4.56
NS(=O)(=O)c1ccc(N2N=C3c4ccccc4CCC3C2c2ccccc2F)cc1 (configuration not stated)	57.9	13.2	11.9	37.2	> 100	3.18
COc1ccccc1C1C2CCc3ccccc3C2=NN1c1ccc(S(N)(=O)=O)cc1 (configuration not stated)	67.2	59.1	2.63	14.4	96.2	11.8
COc1cccc(C2C3CCc4ccccc4C3=NN2c2ccc(S(N)(=O)=O)cc2)c1 (configuration not stated)	68.2	10.4	1.12	19.1	85.5	1.78
NS(=O)(=O)c1ccc(N2N=C3c4ccccc4CCC3C2c2ccccc2Br)cc1 (configuration not stated)	61.1	5.83	12.7	7.21	> 100	3.56
NS(=O)(=O)c1ccc(N2N=C3c4ccccc4CCC3C2c2ccccc2Cl)cc1 (configuration not stated)	65.3	25.9	4.92	13.7	> 100	20.1
NS(=O)(=O)c1ccc(N2N=C3c4ccccc4CCC3C2c2ccc(F)cc2)cc1 (configuration not stated)	59.8	6.89	15.3	22.4	> 100	3.06
NS(=O)(=O)c1ccc(N2N=C3c4ccccc4CCC3C2c2cccc(F)c2)cc1 (configuration not stated)	57.9	59.1	4.83	5.06	> 100	11.2
NS(=O)(=O)c1ccc(N2N=C3c4ccccc4CCC3C2c2ccc(Br)cc2)cc1 (configuration not stated)	69.3	36.5	26.3	6.31	> 100	28.8
NS(=O)(=O)c1ccc(N2N=C3c4ccccc4CCC3C2c2cccc(Br)c2)cc1 (configuration not stated)	52.6	53.5	3.48	11.7	100	28
